From ChEMBL document CHEMBL4311990, “Synthesis, biological activity, and mechanism of action of new 2-pyrimidinyl hydrazone and N-acylhydrazone derivatives, a potent and new classes of antileishmanial agents” (Eur J Med Chem, 2019)
pIC50: −log10 of the molar value. Calls of active or inactive are those of the source. The calls are words filed in the database; no cut-off is given here.

Assays:
Leishmania amazonensis [1] = assay: Antileishmanial activity against wild type Leishmania amazonensis IFLA/BR/67/PH8 promastigotes assessed as parasite viability incubated for 72 hrs by MTT assay; assay type: functional, organism-based; conditions: IFLA/BR/67/PH8, 72 h
Leishmania amazonensis [2] = assay: Antileishmanial activity against GFP-expressing Leishmania amazonensis MHOM/BR/75/Josefa intracellular amastigotes infected in murine peritoneal macrophages incubated for 72 hrs by spectrofluorimetry analysis; assay type: functional, organism-based
[3] = Cytotoxicity against sodium thioglycolate-stimulated BALB/c mouse peritoneal macrophages measured after 72 hrs; assay type: cell-based, Peritoneal macrophage
[4] = Selectivity index, ratio of CC50 for BALB/c mouse peritoneal macrophages to IC50 for GFP-expressing Leishmania amazonensis MHOM/BR/75/Josefa intracellular amastigotes infected in murine peritoneal macrophages; assay type: toxicity, cell-based; conditions: read-out: Ratio CC50/IC50
Leishmania amazonensis [5] = assay: Effect on plasma membrane integrity in wild type Leishmania amazonensis IFLA/BR/67/PH8 promastigotes assessed as increase in fluorescence intensity at 9.66 to 19.32 uM measured after 24 hrs by propidium iodide staining based spectrofluorimetry analysis; assay type: functional, organism-based
Leishmania amazonensis [6] = assay: Induction of ROS generation in wild type Leishmania amazonensis IFLA/BR/67/PH8 promastigotes assessed as increase in ROS level by measuring fluorescence intensity at 19.32 uM measured after 24 hrs by H2DCFDA probe based fluorimetry analysis relative to control; assay type: functional
Leishmania amazonensis [7] = assay: Induction of ROS generation in wild type Leishmania amazonensis IFLA/BR/67/PH8 promastigotes assessed as increase in ROS level by measuring fluorescence intensity at 9.66 uM measured after 24 hrs by H2DCFDA probe based fluorimetry analysis relative to control; assay type: functional
Leishmania amazonensis [8] = assay: Induction of mitochondrial membrane depolarization in wild type Leishmania amazonensis IFLA/BR/67/PH8 promastigotes assessed as reduction in ratio of […] at 19.32 uM measured after 72 hrs by JC-1 based spectrofluorimetry analysis relative to control; assay type: functional; parameters: scale not given: the % may be the effect or the level left
Leishmania amazonensis [9] = assay: Induction of mitochondrial membrane depolarization in wild type Leishmania amazonensis IFLA/BR/67/PH8 promastigotes assessed as reduction in fluorescence intensity at 19.32 uM measured after 72 hrs by Mitotracker red staining based spectrofluorimetry analysis relative to control; assay type: functional; parameters: scale not given: the % may be the effect or the level left
Leishmania amazonensis [10] = assay: Induction of change in plasma membrane integrity in wild type Leishmania amazonensis IFLA/BR/67/PH8 promastigotes assessed as increase in fluorescence intensity at 48.56 uM measured after 24 hrs by propidium iodide staining based spectrofluorimetry analysis relative to control; assay type: functional
Leishmania amazonensis [11] = assay: Induction of change in plasma membrane integrity in wild type Leishmania amazonensis IFLA/BR/67/PH8 promastigotes assessed as increase in fluorescence intensity at 24.28 uM measured after 24 hrs by propidium iodide staining based spectrofluorimetry analysis relative to control; assay type: functional
Leishmania amazonensis [12] = assay: Induction of ROS generation in wild type Leishmania amazonensis IFLA/BR/67/PH8 promastigotes assessed as increase in ROS level by measuring fluorescence intensity at 48.56 uM measured after 24 hrs by H2DCFDA probe based fluorimetry analysis relative to control; assay type: functional
Leishmania amazonensis [13] = assay: Induction of ROS generation in wild type Leishmania amazonensis IFLA/BR/67/PH8 promastigotes assessed as increase in ROS level by measuring fluorescence intensity at 24.28 uM measured after 24 hrs by H2DCFDA probe based fluorimetry analysis relative to control; assay type: functional
Leishmania amazonensis [14] = assay: Induction of mitochondrial membrane depolarization in wild type Leishmania amazonensis IFLA/BR/67/PH8 promastigotes assessed as reduction in ratio of […] at 48.56 uM measured after 72 hrs by JC-1 probe based spectrofluorimetry analysis relative to control; assay type: functional; parameters: scale not given: the % may be the effect or the level left
Leishmania amazonensis [15] = assay: Induction of mitochondrial membrane depolarization in wild type Leishmania amazonensis IFLA/BR/67/PH8 promastigotes assessed as reduction in ratio of […] at 24.28 uM measured after 72 hrs by JC-1 probe based spectrofluorimetry analysis relative to control; assay type: functional; parameters: scale not given: the % may be the effect or the level left
Leishmania amazonensis [16] = assay: Induction of mitochondrial membrane depolarization in wild type Leishmania amazonensis IFLA/BR/67/PH8 promastigotes assessed as reduction in fluorescence intensity at 48.56 uM measured after 72 hrs by Mitotracker red staining based spectrofluorimetry analysis relative to control; assay type: functional; parameters: scale not given: the % may be the effect or the level left
Leishmania amazonensis [17] = assay: Induction of mitochondrial membrane depolarization in wild type Leishmania amazonensis IFLA/BR/67/PH8 promastigotes assessed as reduction in fluorescence intensity at 24.28 uM measured after 72 hrs by Mitotracker red staining based spectrofluorimetry analysis relative to control; assay type: functional; parameters: scale not given: the % may be the effect or the level left

SMILES | pIC50 (Leishmania amazonensis [1]) | pIC50 (Leishmania amazonensis [2]) | CC50 at 72 h [3] [µM] | selectivity ratio [4] | also measured
O=C(N/N=C/c1cc(O)ccc1O)c1ncccn1 | 4.41 | 4.13 | > 150 | > 2.03 | 
C(=N\Nc1ncccn1)/c1ccccn1 | 5.02 | 5.39 | 24.6 | 6.04 | Activity (Leishmania amazonensis [5]): inactive; Activity (Leishmania amazonensis [6]): 88.13%; Activity (Leishmania amazonensis [7]): 111.1%; Activity (Leishmania amazonensis [8]): 10.97%; Activity (Leishmania amazonensis [9]): 30.27%
O=C(N/N=C/c1ccc([N+](=O)[O-])o1)c1ncccn1 | 4.61 | 4.97 | 29.1 | 2.68 | Activity (Leishmania amazonensis [10]): 143%; Activity (Leishmania amazonensis [11]): 82.9%; Activity (Leishmania amazonensis [12]): 74.11%; Activity (Leishmania amazonensis [13]): 47.66%; Activity (Leishmania amazonensis [14]): 49.75%; Activity (Leishmania amazonensis [15]): 36%; Activity (Leishmania amazonensis [16]): 55.48%; Activity (Leishmania amazonensis [17]): 54.94%
O=[N+]([O-])c1ccc(O)c(/C=N/Nc2ncccn2)c1 | 4.98 | 5.00 | 23.8 | 2.36 | 
O=C(N/N=C/c1cc([N+](=O)[O-])ccc1O)c1ncccn1 | 4.54 | 4.16 | 63.4 | 0.91 | 
Oc1ccc(O)c(/C=N/Nc2ncccn2)c1 | 4.56 | 4.34 | 89.4 | 1.95 | 
O=C(N/N=C/c1ccc([N+](=O)[O-])s1)c1ncccn1 | < 4.00 | 5.08 | > 150 | > 17.8 | 
O=C(N/N=C/c1cccc(O)c1O)c1ncccn1 | 4.56 | 4.47 | > 150 | > 4.42 | 
O=C(N/N=C/c1ccc(O)cc1O)c1ncccn1 | < 4.00 | < 4.00 | > 150 | > 1.5 | 
Cc1ccc(/C=N/NC(=O)c2ncccn2)c(O)c1 | 4.28 | 4.45 | > 150 | > 4.19 | 
O=C(N/N=C/c1ccccn1)c1ncccn1 | < 4.00 | < 4.00 | > 150 | > 1.5 | 
Oc1ccccc1/C=N/Nc1ncccn1 | 4.55 | 4.24 | 84.2 | 1.45 | 
CCCCCCCCCCCCCCCCOP(=O)([O-])OCC[N+](C)(C)C [MILTEFOSINE] |  | 5.39 | 132 | 32.6 | 
Oc1cccc(/C=N/Nc2ncccn2)c1O | 5.10 | 4.84 | > 150 | > 10.3 | 
Cc1ccc(/C=N/Nc2ncccn2)c(O)c1 | 4.25 | 4.28 | 54.8 | 1.05 | 
O=C(N/N=C/c1ccccc1O)c1ncccn1 | 4.05 | < 4.00 | > 150 | > 1.5 | 
